Publication PMC11442653, “Treating ICB-resistant cancer by inhibiting PD-L1 via DHHC3 degradation induced by cell penetrating peptide-induced chimera conjugates” (Cell Death & Disease, 2024)

How the values were obtained:
[1] = tested on: C33A cells; test: TUNEL apoptosis assay with cisplatin; assay type: cell-based, human; details: cisplatin vs control
Description: Cells were seeded in 6-well plates at a density between 30% and 50%. Following complete adhesion, various treatments were applied: PBS alone, cisplatin, or a combination of cisplatin and PCC16 for 4 h each. After incubation, the medium was replaced and the cells were rinsed with PBS. The cells were fixed with 4% paraformaldehyde for half an hour and washed again with PBS. To permeabilize the cells, PBS mixed with 0.3% Triton X-100 was added and the cells were incubated at room temperature for 5 min. A specific quantity of the terminal deoxynucleotidyl transferase dUTP nick end labeling (TUNEL) assay reagent was prepared and mixed. After washing the cells on coverslips with PBS twice, 50 µL of the TUNEL reagent was applied to each cell sample. These samples were then incubated at 37 °C in a dark environment for 60 min. The samples were then washed three times with PBS and stained with DAPI for 3–5 min, followed by washing with PBS twice. The final step involved mounting the samples for observation under a fluorescence microscope using an excitation wavelength range of 450–500 nm and an emission wavelength range of 515–565 nm to detect green fluorescence.

[2] = tested on: C33A cells; test: Ki67 proliferation assay with cisplatin; assay type: cell-based, human; details: cisplatin vs control
[3] = tested on: C33A cells; test: Colony formation assay with cisplatin; assay type: cell-based, human; details: vs control; 4 h treatment, then 7 days
Description: The procedure commenced by counting and seeding cancer cells into a 6-well plate, with each well containing approximately 1000 cells. Following complete cell adhesion, various treatments were applied to each well, including a control PBS solution, cisplatin alone, and a combination of cisplatin and PCC16. This was followed by a 4-h incubation period. Subsequently, the initial culture medium was discarded, and the cells were incubated for additional 7 days in a fresh complete medium, which was renewed every 2–3 days. The cultivation process was halted on the formation of visible colonies detectable under a microscope, with each colony comprising approximately 60–80 cells. Double washing with PBS was conducted, followed by a 20-min fixation of the cells using a tissue cell fixative. After fixation, the cells were washed twice with PBS and stained with 0.1% crystal violet for 20 min. After rinsing the excess stain with deionized water, the plates were air-dried at ambient temperature. The colonies were photographed for documentation, and the cell colony counts in each treatment group was recorded.

[4] = tested on: 4T1 cells; test: 4T1 xenograft model in BALB/c mice, antitumor effect; assay type: in vivo, mouse
Description: Female BALB/c mice, aged 6–8 weeks and weighing approximately 20 g were procured from the Wuhan Experimental Animal Center, Hubei, China. In vivo studies assessing antitumor effects were performed according to the protocols of the Experimental Animal Welfare and Ethics Committee at Wuhan University. These studies complied with the National Research Council’s guidelines detailed in the “Guide for the Care and Use of Laboratory Animals.” Cells were harvested in an optimal growth phase with approximately 80% confluence, centrifuged to discard the supernatant, and 2 million 4T1 cells were resuspended in 125 µL of PBS. This cell suspension was subcutaneously injected into the dorsal flank of mice to initiate the tumor model. Tumor dimensions were regularly measured using calipers, and the volume was calculated using the following formula: (length × width²)/2. When the tumor volume was 80–100 mm³, the tumor-bearing mice were allocated for further in vivo investigation. […] The treatments were administered via tail vein injections on days 0, 2, 4, 6, 8, 10, and 12. Throughout the experiment, both the weight of the mice and tumor volume were recorded. On day 18, the mice were euthanized via cervical dislocation. The tumors were excised for measurement, photographic documentation, and weighing.

[5] = tested on: 4T1 cells; test: Activity against ICB-resistant 4T1 tumors in vitro (PD-L1 blockers); assay type: cell-based, mouse

| Compound | apoptosis [1] | cell proliferation (Ki67) [2] | number of C33A colonies [3] | effect on ICB-resistant tumors in vivo ([4]; 4T1) | average tumor weight, percent of control group ([4]; 4T1 xenograft, BALB/c mice, tail vein days 0, 2, 4, 6, 8, 10, 12, n = 4) [%] | tumor weight and size ([4]; 4T1 xenograft, vs control, n = 4) | effect on ICB-resistant tumors in vitro [5] |
| --- | --- | --- | --- | --- | --- | --- | --- |
| N.N.[Cl][Pt][Cl] [cisplatin] | apoptosis increased | cell proliferation decreased | decreased |  |  |  |  |
| Cc1c(COc2ccc(CN3CCCCC3C(=O)O)cc2Br)cccc1-c1ccccc1 (stereo not shown) [BMS-8] |  |  |  | no significant effect on ICB-resistant tumors | 90.8 | slight decrease in weight and size | no significant effect on ICB-resistant tumors |
